Patent publication US10520507B2, “Methods for determining the risk of cardiovascular disease in a subject having a chronic viral infection through the measurement of lysophosphatidic acid” (CASE WESTERN RESERVE UNIVERSITY, priority 2014, dated 2019)

Columns and labels:
[1] = target: ENPP2 (Mus musculus, UniProt Q9R1E6); design: species or system mice; settings: in vivo, 30 mg/kg
[2] = tested on: CD3+ CD4+ and CD3+ CD8+ T cells in PBMC; assay: LPA induced T cell activation assay (HLADR and CD38 co-expression, flow cytometry); type: cell-based, human; settings: 100 uM LPA
Experimental: FIGS. 4(A-B) are a series of charts showing LPA dependent T cell activation. 500,000 PBMC from 5 healthy controls and 3 untreated HIV infected subjects were cultured overnight in the absence or presence of PHA, followed by 3 days of culture in media or 100 uM LPA. Proportion of CD3^+ CD4^+ (Panel A) and CD3^+ CD8^+ (Panel B) T cells that express of HLA DR and CD38 are shown. Statistical analysis shown for all 8 subjects combined. Comparisons between presence and absence of LPA in PHA pre-treated healthy control CD4 and CD8 activation were also significant (P=0.04, P=0.04).
To determine whether LPA can directly contribute to immune activation we have conducted LPA induced T cell activation assays using HLADR and CD38 co-expression as a readout (FIG. 4).

[3] = tested on: monocytes; assay: In vitro monocyte activation by LPA; type: cell-based

| Compound | Reversal of deleterious effect on T cell function and neoantigen response [1] | T cell activation (HLADR and CD38 co-expression) ([2]; PBMC from healthy controls and untreated HIV infected subjects, 4 day culture, with or without PHA) | Activation in the CD4 compartment ([2]; regardless of pre-activation, more robust with PHA pre-activation) | Monocyte activation [3] |
| --- | --- | --- | --- | --- |
| O=C(CCN1CCN(C(=O)OCc2cc(Cl)cc(Cl)c2)CC1)c1ccc2[nH]c(=O)oc2c1 [PF-8380] | at least partially reversed | – | – | – |
| lysophosphatidic acid [LPA] | – | enhanced T cell activation | Activation was observed | activated monocytes |
